Results published in ChEMBL document CHEMBL1156829 (Proc Natl Acad Sci U S A, 2008).

Columns and labels:
Plasmodium falciparum [1] = experiment: NOVARTIS: Inhibition of Plasmodium falciparum 3D7 (drug-susceptible) proliferation in erythrocyte-based infection assay; assay type: functional, organism-based; details: Plasmodium falciparum, 3D7
Plasmodium falciparum [2] = experiment: NOVARTIS: Inhibition of Plasmodium falciparum W2 (drug-resistant) proliferation in erythrocyte-based infection assay; assay type: functional, organism-based; details: Plasmodium falciparum, W2; read-out: EC50
[3] = NOVARTIS: Cytotoxicity against human hepatocellular carcinoma cell line (Huh7); assay type: toxicity, cell-based, Huh-7; details: Huh7 cells (hepatocellular carcinoma cell line)

SMILES	EC50 (Plasmodium falciparum [1]) [nM]	EC50 (Plasmodium falciparum [2]) [nM]	CC50 [3] [nM]
N=C(N)NN=Cc1cccc(OCc2ccc(Cl)c(Cl)c2)c1	1990	1690	> 10000
Cc1ccc2nc(Nc3nc(O)c4ccccc4n3)nc(C)c2c1	575	> 1620	> 10000
COc1ccc(N=C2NC(=O)/C(=C\c3ccc(N(C)C)cc3)S2)cc1	1020	> 1680	> 10000
CSc1ccc(Cl)c(Cl)c1	83.9	398	2350
COc1cc(Nc2nccn3c(-c4ccsc4)cnc23)cc(OC)c1OC	> 1250	1650	> 10000
Cc1ccc(S(=O)(=O)NC(Cc2ccccc2)C(=O)N2CCC(C3CCN(C(=O)c4ccc([N+](=O)[O-])o4)CC3)CC2)cc1 (stereo not given)	1910	> 1680	> 10000
CCCCC(=O)Nc1ccccc1-c1nnn(CC(=O)Nc2ccc3c(c2)OCCO3)n1	> 1140	> 1670	> 10000
N#CC1=C(N)Oc2c(c(=O)oc3ccccc23)C1c1ccoc1 (stereo not given)	> 1160	> 1660	> 10000
CCCN1CCN(C(=O)CCNC(=O)Cn2cnc3ccccc3c2=O)CC1	> 1250	1590	> 10000
O=C1NN=C(CC(=O)N2CC[C@@H](c3ccccc3)[C@H](O)C2)C2C=CC=CC12 (stereo not given in full)	> 853	> 1590	> 10000
CC1CCN(C(=O)CSc2nc(NCc3ccccc3)c3ccccc3n2)CC1	673	> 1580	> 10000
Cc1cccc(OCC(=O)NCCNC2=NS(=O)(=O)c3ccccc32)c1	> 1120	1680	> 10000
CCOC(=O)c1c(NC(=O)CSc2nnc(CNC(=O)c3cccc(OC)c3)n2C2CCCCC2)sc2c1CCCC2	> 295	> 1670	> 10000
CNc1nc(Cl)nc(Nc2ccccc2)n1	> 482	1650	> 10000
Cc1ccc(Nc2nc3c(N)nnc(N)c3nc2Nc2ccc(C)cc2)cc1	6120	2210	13300
CCOC(=O)N1CCN(C(=O)c2cnc3ccc(C)cn3c2=O)CC1	> 355	> 1660	> 10000
CCOC(=O)c1[nH]c(C)c(CNc2cccc(F)c2)c1C	1060	1660	> 10000
COC(=O)C1=C(C)Nc2[nH]c(=S)[nH]c(=O)c2C1c1ccccc1F (stereo not given)	1280	> 1650	> 10000
COc1cccc(CN2CCC(O)(c3ccc4oc(C(=O)Nc5ccc(Cl)cc5)cc4c3)CC2)c1	2160	4060	24700
O=c1c2ccccc2nc(/C=C/c2ccc([N+](=O)[O-])o2)n1-c1ccc(Br)cc1	902	> 1640	> 10000
CN(C)c1ccc(N/C=C/C(=O)C(C)(C)C)cc1	1450	1580	> 10000
CCOC(=O)c1[nH]c(C)c(CNc2cccc(OC)c2)c1C	1510	1200	6980
Cc1ccc(Nc2nc3nonc3nc2N(C)C)cc1Cl	> 1460	1610	> 10000
COC(C(=NO)c1ccc(Cl)cc1)c1ccccc1 (stereo not given)	> 912	> 1610	> 10000

SMILES	EC50 (Plasmodium falciparum [1]) [nM]	EC50 (Plasmodium falciparum [2]) [nM]	CC50 [3] [nM]
Oc1ccccc1C=NNc1nnc2c3ccccc3n(Cc3ccccc3)c2n1	> 832	> 1720	> 10000
Brc1cc(Br)c2c(-c3ccccc3)n(-c3ccccc3)nc(-c3ccccc3)c1-2	753	> 1710	> 10000
COc1ccc(-c2cnc3ccc(NC4CCOCC4)nn23)cc1OC	> 933	> 1620	> 10000
CC(C)CNC(=O)c1cnc(NCCCn2ccnc2)nc1NCC(C)C	768	1610	> 10000
CN1CCN(N/C=C2/C(=O)N(c3nc4ccccc4s3)N=C2c2ccccc2)CC1	> 549	> 1740	> 10000
C[C@@H]1C[C@@H](C)C(=O)[C@@H](C(O)CC2CC(=O)NC(=O)C2)C1 (stereo not given in full)	153	366	2140
COc1cc(NC(C)CCCN(Cc2ccc(F)cc2)C(=O)Nc2ccc(Br)cc2)c2ncccc2c1 (stereo not given)	927	691	4240
COc1ccc(-c2ccc(C(=O)N(C)Cc3cscn3)c(N3CCC(N4CCc5ccccc5C4)CC3)n2)cc1	> 1250	1750	> 10000
COc1cc(-c2nc(-c3ccccc3)c(-c3ccc(O)cc3)[nH]2)cc(OC)c1O	879	> 1750	> 10000
CCOC(=O)C1=C(C)N/C(=C\c2cc(C)n(-c3ccc(C)cc3C)c2C)C1=O	> 1250	1740	> 10000
CCOC(=O)c1cnc2ccc(OC)cc2c1Nc1ccc(N2CCN(C)CC2)cc1	1090	> 1700	> 10000
CCCCNC(=O)c1ccc2c(c1)N=C(CC(C)c1ccccc1)N(C1CCCCC1)C2 (stereo not given)	1450	8210	48700
COc1ccc(C2N=C(N)N=C(N)N2c2ccc(C)cc2)cc1 (stereo not given)	73.8	> 1640	> 10000
CCOCCCN(C(=O)C(F)(F)F)C(C(=O)NC1CCCCC1)c1ccncc1 (stereo not given)	1870	> 1620	> 10000
COc1ccccc1C(=O)NNC(=O)c1ccccn1	1710	1380	8700
Cc1ccc2nc(-c3ccccc3)cc(C(=O)Nc3ccc(Cl)c(Cl)c3)c2c1	> 1250	1700	> 10000
N#Cc1c(NC(=O)CCl)c(C(=O)c2ccccc2)n2c1CCC2	298	> 12500	> 74200
COc1cc(/C=C(\C#N)c2nc3ccccc3[nH]2)ccc1OCc1ccccc1Cl	> 1250	1670	> 10000
CCC(c1ccc(F)cc1)n1cc(C(=O)NCCCN2CCC(C)CC2)nn1 (stereo not given)	> 651	> 1640	> 10000
C=CCNC(=O)CSc1ccc(C(=O)Nc2ccc(Cl)cc2F)cc1[N+](=O)[O-]	> 1170	> 1630	> 10000
N#C/C(=C\NC1CCN(Cc2ccccc2)CC1)C(=O)c1cccs1	220	1620	> 10000
O=C(c1ccncc1)N1N=C(C(F)(F)F)CC1(O)c1cccc([N+](=O)[O-])c1 (stereo not given)	> 1220	> 1680	> 10000
Cc1cc(Nc2ccc(Br)cc2)nc2ccccc12	> 1250	1690	> 10000
O=C(Cn1c2ccccc2c(=O)c2cc(Cl)ccc21)Nc1cccc(C(F)(F)F)c1	> 1360	1650	> 10000

SMILES	EC50 (Plasmodium falciparum [1]) [nM]	EC50 (Plasmodium falciparum [2]) [nM]	CC50 [3] [nM]
CC[n+]1c(/C=C(C)/C=C2\Sc3ccccc3N2CCO)sc2ccccc21	> 1250	1640	> 10000
FC(F)(F)c1cccc(Nc2nc3nonc3nc2Nc2ccc(Cl)cc2)c1	> 1310	1610	> 10000
CCN1C(=O)NC(c2cccc(NC(=O)Nc3cc(C(F)(F)F)cc(C(F)(F)F)c3)c2)C(C(=O)OC(C)C)=C1C (stereo not given)	8420	6010	35300
O=C(Nc1ccc(N2CCCCC2)cc1)c1cc2ccccc2o1	> 1300	634	> 3660
COC(=O)C1=C(OC)C(=O)OC12C=CC(=O)C=C2	2220	423	2520
CC1CC(C)CN(c2ccc([N+](=O)[O-])cc2-c2nnn[nH]2)C1 (stereo not given)	> 831	> 1610	> 10000
Cc1ccc(N2C(=O)CC(NCCCN3CCOCC3)C2=O)cc1 (stereo not given)	> 1290	1610	> 10000
O=C(Nc1ccc(C(c2ccccc2)(c2ccccc2)c2ccc(NC(=O)c3cccc([N+](=O)[O-])c3)cc2)cc1)c1cccc([N+](=O)[O-])c1	> 1250	1680	> 10000
CC(C)c1ccc(C=NNC(=O)c2ccccc2O)cc1	> 1250	1680	> 10000
O=c1nc(/C=C/c2ccc(Cl)cc2)oc2ccccc12	1850	> 1660	> 10000
O=C(Cn1c(=O)oc2cc(Cl)ccc21)c1ccccc1	> 12500	4500	28400
CC(C)CCn1c(NCc2ccccc2)nc2c1c(=O)n(CC(N)=O)c(=O)n2C	> 1250	1710	> 10000
C[n+]1ccc(C2OC2c2ccccc2)c2ccccc21 (stereo not given)	1380	1740	> 10000
Cc1nnc2sc(SCc3ccc([N+](=O)[O-])cc3)nn2c1=O	> 481	> 1640	> 10000
CN(C)CCNc1cc(-c2cccc(C(F)(F)F)c2)nc(-c2ccncc2)n1	> 1250	1680	> 10000
COCCCNC(=O)CSCc1nc(-c2ccccc2F)oc1C	> 467	> 1740	> 10000
CC1=C(C(=O)OCCC(C)C)C(c2ccccc2)C(C(=O)OCCC(C)C)=C(C)N1	> 918	> 1630	> 10000
CCSc1ncnc2scc(-c3ccccc3)c12	> 1510	1710	> 10000
COc1ccc(C(NC(=O)COc2ccccc2)c2cc(Cl)c3cccnc3c2O)cc1OC (stereo not given)	4660	3080	18500
COc1ccc(-c2cc(C(=O)NCc3cccnc3)no2)cc1OC	> 1290	1700	> 10000
COc1ccccc1NC(=O)Cn1cnc2sc(C(=O)Nc3ccc(F)cc3)c(C)c2c1=O	513	> 1710	> 10000
COc1ccc(C2C(C(=O)NCCN(C)C)c3ccccc3C(=O)N2C2CCCCC2)cc1 (stereo not given)	> 427	1610	> 10000
